Reference: patent US20120196899A1, “METHODS AND PRODUCTS FOR TREATING INFLAMMATION” (Rock Creek Pharmaceuticals, Inc., priority 2010, published 2012)
Read-outs that look alike come from different tables or passages of the source.

Assay: Plasma toxicokinetics after single i.v. bolus
Assay type: in vivo, Sprague-Dawley rats
Conditions: for concentration at 0.5 h / concentration at 1 h / concentration at 2 h / concentration at 4 h / concentration at 6 h / concentration at 8 h / AUC(0-inf) / MRT / Vd / half-life: Sprague-Dawley, rat, plasma; for concentration at 0.5 h / concentration at 1 h / concentration at 2 h / concentration at 4 h / concentration at 6 h / concentration at 8 h: intravenous, read-out: Avg. Conc. rat plasma; for AUC(0-inf) / MRT / Vd / half-life: iv; for half-life: read-out: t1/2 (converted)
Experimental: Six rats (3 males and 3 females) were dosed per dose group. […] Plasma and brain homogenates were stored at −80° C. until analysis.
An additional 48 rats (24 males and 24 females) received a single intravenous dose via the tail vein at the same doses as mentioned above. At 30 and 360 minutes post administration, 6 rats (3 males and 3 females) per dose group, per time point were euthanized, bled via cardiac puncture, and perfused, and brains were collected. The brains were homogenized. Blood was spun, and plasma was collected. Plasma and brain homogenate were stored at −80° C.
Four aliquots of each dose level formulation were collected and stored at −80° C. The test compound, corresponding dose level, number of animals, and sample collection times for Phase I of the study are shown in Table 3. The test compound, corresponding dose level, number of animals, and sample collection times for Phase II of the study are shown in Table 4. The physical signs of each animal were monitored following administration of the test compound.
The animals were weighed prior to dosing and received a single i.v. dose of either test compound at a volume of 5 mL/kg. Blood was collected via the venus plexus (retro-orbital) into tubes containing (K2) EDTA. No more than 0.5 mL was collected per time point. […] The brain was removed, weighed, homogenized in sterile 0.9% saline at a volume equal to its weight, and stored at −80° C.
Plasma was separated according to the instructions for MICROTAINER® brand collection tubes (3 minutes, 2000×g). Plasma was decanted into microfuge tubes and stored at −80° C. Remaining test compound was stored at −80° C.
The signal was optimized for each compound by electrospray ionization (ESI) positive or negative ionization mode. A single ion mode (SIM) scan was used to optimize the Fragmentor for the precursor ion and a product ion analysis was used to identify the best fragment for analysis and to optimize the collision energy. The fragment which gave the most sensitive and specific signal was chosen.
Sample preparation. […] The amount of the test agent in the supernatant was determined by liquid chromatography tandem mass spectrometry (LC/MS/MS).
Analysis. Samples were analyzed by LC/MS/MS using an Agilent 6410 mass spectrometer coupled with an Agilent 1200 high pressure liquid chromatography (HPLC) and a CTC PAL chilled autosampler, all controlled by MassHunter software (Agilent). After separation on a hydrophilic interaction liquid chromatography (HILIC) HPLC column (Sepax) using an acetonitrile-ammonium acetate/acetic acid gradient system, peaks were analyzed by mass spectrometry (MS) using ESI ionization in multiple reaction monitoring (MRM) mode. MassHunter software was used to calculate the concentration of the test compounds in samples from the peak area using the appropriate calibration curves.
Calibration samples. Calibration curves were determined for both rat plasma and brain homogenate. Calibration samples were prepared by diluting a 50× stock solution of the test compound in PBS with blank matrix to the appropriate concentration and these samples were prepared as described above in the sample preparation.

[1] = female, 0.1 mg/kg, Anatabine 0.1 mg/kg, female
[2] = female, 0.75 mg/kg, Anatabine 0.75 mg/kg, female
[3] = female, 1 mg/kg, Anatabine 1.0 mg/kg, female
[4] = male, 0.1 mg/kg, Anatabine 0.1 mg/kg, male
[5] = male, 0.75 mg/kg, Anatabine 0.75 mg/kg, male
[6] = male, 1 mg/kg, Anatabine 1.0 mg/kg, male

C1=CCC(c2cccnc2)NC1 (racemic) [Anatabine, 1,2,3,6-tetrahydro-[2,3′]bipyridinyl]
concentration at 0.5 h (female, 0.1 mg/kg, Anatabine 0.1 mg/kg, female, 0.5 hr (2nd 0.5 hr line)): 31.7 ng/mL
concentration at 1 h [1]: 11 ng/mL
concentration at 2 h [1]: 6.7 ng/mL
concentration at 4 h [1]: 4 ng/mL
concentration at 6 h (female, 0.1 mg/kg, Anatabine 0.1 mg/kg, female, 6 hr (1st 6 hr line, N=3)): 3.7 ng/mL
concentration at 6 h (female, 0.1 mg/kg, Anatabine 0.1 mg/kg, female, 6 hr (2nd 6 hr line, N=1)): 3 ng/mL
concentration at 0.5 h (female, 0.75 mg/kg, Anatabine 0.75 mg/kg, female, 0.5 hr (1st 0.5 hr line)): 190 ng/mL
concentration at 0.5 h (female, 0.75 mg/kg, Anatabine 0.75 mg/kg, female, 0.5 hr (2nd 0.5 hr line)): 354 ng/mL
concentration at 1 h [2]: 173 ng/mL
concentration at 2 h [2]: 99.7 ng/mL
concentration at 4 h [2]: 45.3 ng/mL
concentration at 6 h (female, 0.75 mg/kg, Anatabine 0.75 mg/kg, female, 6 hr (1st 6 hr line)): 18.3 ng/mL
concentration at 6 h (female, 0.75 mg/kg, Anatabine 0.75 mg/kg, female, 6 hr (2nd 6 hr line)): 23 ng/mL
concentration at 8 h [2]: 11 ng/mL
concentration at 0.5 h (female, 1 mg/kg, Anatabine 1.0 mg/kg, female, 0.5 hr (1st 0.5 hr line)): 237 ng/mL
concentration at 0.5 h (female, 1 mg/kg, Anatabine 1.0 mg/kg, female, 0.5 hr (2nd 0.5 hr line)): 368 ng/mL
concentration at 1 h [3]: 229 ng/mL
concentration at 2 h [3]: 164 ng/mL
concentration at 4 h [3]: 60.7 ng/mL
concentration at 6 h (female, 1 mg/kg, Anatabine 1.0 mg/kg, female, 6 hr (1st 6 hr line)): 29.3 ng/mL
concentration at 6 h (female, 1 mg/kg, Anatabine 1.0 mg/kg, female, 6 hr (2nd 6 hr line)): 23 ng/mL
concentration at 8 h [3]: 17.7 ng/mL
AUC(0-inf) (female, 0.1 mg/kg): 37.9 ± 15.9 ng·h/mL
MRT (female, 0.1 mg/kg): 2.55 ± 0.93 h
Vd (female, 0.1 mg/kg): 6.52 ± 0.66 L/kg
AUC(0-inf) (female, 0.75 mg/kg): 544 ± 62.7 ng·h/mL
Vd (female, 0.75 mg/kg): 3.19 ± 0.15 L/kg
half-life (female, 0.75 mg/kg, anatabine 0.75 mg/kg single i.v., female rats): 104 ± 1.8 min
AUC(0-inf) (female, 1 mg/kg): 789 ng·h/mL
MRT (female, 1 mg/kg): 2.8 h
Vd (female, 1 mg/kg): 3.16 ± 0.15 L/kg
half-life (female, 1 mg/kg, anatabine 1.0 mg/kg single i.v., female rats): 110 min
concentration at 0.5 h (male, 0.1 mg/kg, Anatabine 0.1 mg/kg, male, 0.5 hr (1st 0.5 hr line)): 15.3 ng/mL
concentration at 0.5 h (male, 0.1 mg/kg, Anatabine 0.1 mg/kg, male, 0.5 hr (2nd 0.5 hr line)): 31.7 ng/mL
concentration at 1 h [4]: 12.3 ng/mL
concentration at 2 h [4]: 6.3 ng/mL
concentration at 4 h [4]: 3 ng/mL
concentration at 6 h (male, 0.1 mg/kg, Anatabine 0.1 mg/kg, male, 6 hr (2nd 6 hr line)): 5 ng/mL
concentration at 0.5 h (male, 0.75 mg/kg, Anatabine 0.75 mg/kg, male, 0.5 hr (1st 0.5 hr line)): 181 ng/mL
concentration at 0.5 h (male, 0.75 mg/kg, Anatabine 0.75 mg/kg, male, 0.5 hr (2nd 0.5 hr line)): 302 ng/mL
concentration at 1 h [5]: 152 ng/mL
concentration at 2 h [5]: 83.7 ng/mL
concentration at 4 h [5]: 34.7 ng/mL
concentration at 6 h (male, 0.75 mg/kg, Anatabine 0.75 mg/kg, male, 6 hr (1st 6 hr line)): 14 ng/mL
concentration at 6 h (male, 0.75 mg/kg, Anatabine 0.75 mg/kg, male, 6 hr (2nd 6 hr line)): 22 ng/mL
concentration at 8 h [5]: 9 ng/mL
concentration at 0.5 h (male, 1 mg/kg, Anatabine 1.0 mg/kg, male, 0.5 hr (1st 0.5 hr line)): 272 ng/mL
concentration at 0.5 h (male, 1 mg/kg, Anatabine 1.0 mg/kg, male, 0.5 hr (2nd 0.5 hr line)): 399 ng/mL
concentration at 1 h [6]: 234 ng/mL
concentration at 2 h [6]: 123 ng/mL
concentration at 4 h [6]: 42.3 ng/mL
concentration at 6 h (male, 1 mg/kg, Anatabine 1.0 mg/kg, male, 6 hr (1st 6 hr line)): 18 ng/mL
concentration at 6 h (male, 1 mg/kg, Anatabine 1.0 mg/kg, male, 6 hr (2nd 6 hr line)): 27 ng/mL
concentration at 8 h [6]: 7.7 ng/mL
AUC(0-inf) (male, 0.1 mg/kg): 32 ± 7.7 ng·h/mL
MRT (male, 0.1 mg/kg): 2.03 ± 0.41 h
Vd (male, 0.1 mg/kg): 5.29 ± 0.49 L/kg
half-life (male, 0.1 mg/kg, anatabine 0.1 mg/kg single i.v., male rats): 75 ± 19.2 min
AUC(0-inf) (male, 0.75 mg/kg): 464 ± 36.2 ng·h/mL
MRT (male, 0.75 mg/kg): 2.5 ± 0.19 h
Vd (male, 0.75 mg/kg): 3.48 ± 0.18 L/kg
AUC(0-inf) (male, 1 mg/kg): 631 ng·h/mL
MRT (male, 1 mg/kg): 2.18 h
Vd (male, 1 mg/kg): 3.01 ± 0.12 L/kg
half-life (male, 1 mg/kg, anatabine 1.0 mg/kg single i.v., male rats): 86.4 min
plasma concentration between approximately 6 and 8 hours (nicotine 0.4 mg/kg, anatabine 0.1 mg/kg single i.v., rats): below the limits of quantitation
